Assay results from US20110086813A1, “COMPOUNDS FOR TREATING BACTERIAL INFECTIONS” (priority 2008, published 2011).

Experiments:
[1] = biological target: T1, Gram Negative E. coli RelA (Escherichia coli, UniProt P0AG20); assay: In vitro (p)ppGpp accumulation, RelA synthetic activity; assay type: biochemical; conditions: figure only
T1 construct: made in house; host or cells: deltaRelA E. coli cells, IPTG induced
Experimental: (§1) Starters of deltaRelA E. coli cells, expressing one of the following proteins (RelA, RelA638 or Relseq385) in trans, were grown overnight at 37° C. The next day, the starters were diluted 1:50 in 400 ml LBamp and the cells have continued to grow at 37° C. until they reached O.D600=˜0.6. Then, the cells were added with IPTG (1 mg/ml) and the cells were grown at the same conditions for additional 2-3 h. After that the cells were harvested for 10 min at 4000 rpm and the pellet was frozen at −80° C.
(§2) • Lysis of the pellet using “Lysis Buffer” containing Lysozyme (3 mg/ml) and ½ pill of Complete (EDTA-free). • Sonication on ice for 3.5 min. • Centrifuge the cells for 10 min at 10000 rpm. • Mix the supernatant with Ni-NTA bids for 1 h at 4° C. • Load the bids on a column and wash it with “Wash Buffer”. • Elute the protein using “Elution Buffer”.
(§3) The elution fractions were run on 12% Acryl/Bis gel and the fractions containing the most protein were taken to dialysis (two times overnight at 4° C.). After dialysis the concentration of the protein was determined using Bradford Reagent (O.D595).
(§4) In Vitro (p)ppGpp Accumulation:
(§5) 2.5 mM GTP, 20 mM ATP, 200 mM Tris HCl pH7.4, 5 mM DTT, 50 mM MgCl2
(§6) 50 mM KCl, 135 mM (NH4)2SO4, α-^32P GTP (0.1 μl per reaction), DDW
(§7) Once the buffer is added together with 1 μg of protein, 0-10 mM of inhibitor and 30 μg of ribosomes (in a total volume of 20 μl) the following reaction occurs: GTP/GDP+ATP→(p)ppGpp.
(§8) The reactions are incubated at room temperature for a period of 10-90 minutes. Then, the reactions are stopped by the addition of 5 μl of Formic acid. Once the reactions were stopped, they were placed on ice until 5 μl of each reaction were loaded on Cellulose PEI (Merck) and ran for 2 hours in 1.5M KH2PO4. The PEI was read, using image reader-1000 V1.8 and the data was analyzed by TINA 2.0 software.

[2] = biological target: T2, Relseq from Gram Positive Streptococcus equisimils (Streptococcus dysgalactiae subsp. equisimilis, UniProt Q54089); assay: In vitro (p)ppGpp accumulation, Relseq synthetic activity; assay type: biochemical; conditions: figure only
T2 construct: made in house; host or cells: deltaRelA E. coli cells, IPTG induced
T2 sequence (Q54089 1-385): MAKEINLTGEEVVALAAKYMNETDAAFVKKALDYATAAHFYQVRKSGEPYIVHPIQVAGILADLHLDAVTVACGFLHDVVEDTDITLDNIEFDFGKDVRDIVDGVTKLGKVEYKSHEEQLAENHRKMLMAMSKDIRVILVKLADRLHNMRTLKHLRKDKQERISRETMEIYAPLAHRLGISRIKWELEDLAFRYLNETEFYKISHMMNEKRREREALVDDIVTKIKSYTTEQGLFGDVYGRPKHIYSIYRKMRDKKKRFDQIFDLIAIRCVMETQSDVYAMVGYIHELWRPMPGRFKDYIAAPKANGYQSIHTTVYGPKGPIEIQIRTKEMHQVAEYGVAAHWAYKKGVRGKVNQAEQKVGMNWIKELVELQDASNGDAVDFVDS
Experimental: as §1, §2, §3, §4, §5, §6, §7, §8

[3] = separate experiment, presented as % inhibition vs. compound concentration
[4] = presented as pmol (p)ppGpp per mg RelA vs. compound concentration, 0-10 mM inhibitor
[5] = presented as % inhibition vs. compound concentration

T1 sequence (P0AG20 whole entry): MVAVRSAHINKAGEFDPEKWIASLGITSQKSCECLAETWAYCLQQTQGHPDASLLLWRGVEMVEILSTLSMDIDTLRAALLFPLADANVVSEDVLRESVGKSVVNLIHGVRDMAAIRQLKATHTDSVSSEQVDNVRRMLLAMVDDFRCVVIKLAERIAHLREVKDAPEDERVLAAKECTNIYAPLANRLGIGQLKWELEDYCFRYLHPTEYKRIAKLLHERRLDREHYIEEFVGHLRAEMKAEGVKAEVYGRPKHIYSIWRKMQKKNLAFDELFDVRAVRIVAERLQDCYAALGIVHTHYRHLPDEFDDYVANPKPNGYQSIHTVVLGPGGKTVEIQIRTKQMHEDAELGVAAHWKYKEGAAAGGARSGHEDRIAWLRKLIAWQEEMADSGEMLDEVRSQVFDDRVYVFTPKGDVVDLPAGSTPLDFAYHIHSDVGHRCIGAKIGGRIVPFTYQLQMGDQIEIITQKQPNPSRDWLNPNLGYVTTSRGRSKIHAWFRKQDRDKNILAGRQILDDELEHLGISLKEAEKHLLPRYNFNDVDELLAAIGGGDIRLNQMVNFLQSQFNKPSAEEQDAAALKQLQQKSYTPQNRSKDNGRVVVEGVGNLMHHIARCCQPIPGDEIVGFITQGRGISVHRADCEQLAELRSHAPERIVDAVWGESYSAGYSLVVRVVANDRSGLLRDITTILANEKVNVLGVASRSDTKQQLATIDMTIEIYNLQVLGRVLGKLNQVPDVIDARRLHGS

SMILES	inhibitory effect on RelA synthetic activity in vitro [1, 3]	inhibitory effect on RelA synthetic activity in vitro [1, 4]	inhibitory effect on Relseq synthetic activity in vitro [2, 5]	inhibitory effect on Relseq synthetic activity in vitro ([2]; presented as pmol (p)ppGpp per mg Relseq vs. compound concentration)
CC(C)C(=O)Nc1nc2c(ncn2C2OC(COP(=O)(O)CP(=O)(O)O)C(O)C2OP(=O)(O)CP(=O)(O)O)c(=O)[nH]1 (stereo not drawn) [Compound D2c]	inhibitory effect	–	–	–
CC(C)C(=O)Nc1nc2c(ncn2C2OC(COP(=O)(O)CP(=O)(O)O)C(O[Si](C)(C)C(C)(C)C)C2OP(=O)(O)CP(=O)(O)O)c(=O)[nH]1 (stereo not drawn) [Compound D6]	inhibitory effect	inhibitory effect	–	–
Nc1nc2c(ncn2[C@@H]2O[C@H](COP(=O)(O)CP(=O)(O)O)C(O)C2OP(=O)(O)CP(=O)(O)O)c(=O)[nH]1 (stereo partly drawn) [Compound D2b]	inhibitory effect	–	inhibitory effect	–
CC(C)C(=O)Nc1nc2c(ncn2C2OC(COP(=O)(O)CP(=O)(O)O)C(OP(=O)(O)CP(=O)(O)O)C2O[Si](C)(C)C(C)(C)C)c(=O)[nH]1 (stereo not drawn) [Compound D7]	inhibitory effect	inhibitory effect	–	–
CC(C)C(=O)Nc1nc2c(ncn2C2OC(COP(=O)(O)CP(=O)(O)O)C(OP(=O)(O)CP(=O)(O)O)C2O)c(=O)[nH]1 (stereo not drawn) [Compound D8]	inhibitory effect	inhibitory effect	–	–
CC1(C)OC2C(COP(=O)(O)CP(=O)(O)O)OC(n3cnc4c(=O)[nH]c(N)nc43)C2O1 (stereo not drawn) [Compound E3b]	inhibitory effect	inhibitory effect	inhibitory effect	–
Nc1nc2c(ncn2[C@@H]2O[C@H](COP(=O)(O)CP(=O)(O)O)C(OP(=O)(O)CP(=O)(O)O)C2O)c(=O)[nH]1 (stereo partly drawn) [Compound D1c]	inhibitory effect	–	inhibitory effect	–
Nc1nc2c(ncn2[C@H]2CC(OP(=O)(O)CP(=O)(O)O)[C@@H](COP(=O)(O)CP(=O)(O)O)O2)c(=O)[nH]1 (stereo partly drawn) [Compound D3, 5′,3′-O-di-[methylene-(bisphosphonate)]-2′-deoxyguanosine]	inhibitory effect	inhibitory effect	inhibitory effect	inhibitory effect
Nc1nc2c(ncn2[C@@H]2O[C@H](COP(=O)(O)CP(=O)(O)O)C(O)C2O)c(=O)[nH]1 (stereo partly drawn) [Compound A1]	inhibitory effect	inhibitory effect	inhibitory effect	–
